{"source": "patent US20240368566A1", "about": "“PYK2-DERIVED PEPTIDES FOR INHIBITING INVADOPODIA-MEDIATED CANCER METASTASIS” (BAR-ILAN UNIVERSITY, priority 2023, published 2024)", "tested_on": "4T1 cells", "test": "Spontaneous lung metastasis clonogenic assay in 4T1 xenograft mouse model", "format": "in vivo, BALB/c female mice", "conditions": "10 mg/kg once a day for eight days, intraperitoneal injection, HIV-TAT fused peptide; versus scrambled control", "description": "All experimental procedures were conducted following the Federation of Laboratory Animal Science Association (FELSA) and were approved by the Bar-Ilan University animal use and care committee. Mouse xenograft tumors were generated by injecting 10^6 4T1 cells resuspended in 20% collagen I (BD Biosciences, Franklin Lakes, NJ, USA) in PBS into the lower-left mammary gland of 8-week-old BALB/c female mice. […] 4T1 cells have intrinsic resistance to 6-thioguanine, which enables precise quantification of metastatic cells, even when they are disseminated at sub-microscopic levels at distant organs, upon excision and digestion of selected organs. The clonogenic assay is based on a principle by which one colony represents one metastatic cell. Briefly, spontaneous lung metastasis was measured in BALB/c mice bearing orthotopic 4T1 tumors of equal size (1-1.2 cm in diameter). Lungs were excised and minced and plated in RPMI/10% FBS in the presence of 6-thioguanine to select for tumor cells only. Cells were plated in a 5% CO2 incubator at 37° C. for 14 days to form 4T1 colonies. On day 14 after plating, the medium was removed from dishes, and colonies were fixed in 4% paraformaldehyde for one hour at room temperature. Colonies were then stained in 2% crystal violet solution and thoroughly washed with PBS. Plates were allowed to air dry, and colonies in each plate were quantified. […]", "note": "Entries after “also recorded” stand apart in the source; their conditions may differ.", "data": [{"smiles": "C[C@H](NC(=O)[C@@H](N)[C@@H](C)O)C(=O)N[C@@H](Cc1ccccc1)C(=O)N[C@@H](CCC(N)=O)C(=O)N[C@@H](CCC(=O)O)C(=O)N1CCC[C@H]1C(=O)N1CCC[C@H]1C(=O)N1CCC[C@H]1C(=O)N[C@@H](CCCCN)C(=O)N1CCC[C@H]1C(=O)N[C@@H](CO)C(=O)N[C@@H](CCCNC(=N)N)C(=O)N1CCC[C@H]1C(=O)N[C@@H](CCCCN)C(=O)N[C@@H](Cc1ccc(O)cc1)C(=O)N[C@@H](CCCNC(=N)N)C(=O)N1CCC[C@H]1C(=O)N1CCC[C@H]1C(=O)N1CCC[C@H]1C(=O)O", "note": "[Pyk2-PRR2, TAFQEPPPKPSRPKYRPPP]", "values": [{"measurement": "lung metastases (6-thioguanine-resistant colonies)", "result": "significantly fewer lung metastases; also recorded: can suppress in vivo breast tumor metastasis; also recorded: significantly inhibited lung metastasis"}]}]}
